Measurements from patent US8048903B2, “5-iodotetrazoles” (LANXESS Deutschland GmbH, priority 2004, dated 2011).
≈ marks a conversion by molar mass, not a printed value.

What was measured:
Penicillium brevicaule = assay: Minimum inhibitory concentration (MIC) against fungi on malt extract agar; format: cell-based; conditions: 336 h, 2 weeks at 28° C., 60 to 70% relative atmospheric humidity, read-out: Minimum inhibitory concentrations Penicillium brevicaule
Description: (§1) In each case, the active compounds according to the invention, in concentrations of from 0.1 mg/l to 5000 mg/l, were added to an agar which had been prepared using malt extracts. The MIC was determined after 2 weeks of storage at 28° C. and 60 to 70% relative atmospheric humidity. The MIC is the lowest concentration of active compound at which there is no colonization by the microbial species used.

Chaetomium globosum = assay: as above; format: cell-based; conditions: 336 h, 2 weeks at 28° C., 60 to 70% relative atmospheric humidity, read-out: Minimum inhibitory concentrations Chaetomium globosum
Description: as §1

Aspergillus niger = assay: as above; format: cell-based; conditions: 336 h, 2 weeks at 28° C., 60 to 70% relative atmospheric humidity, read-out: Minimum inhibitory concentrations Aspergillus niger
Description: as §1

[1] = tested on: mold fungi (Alternaria tenuis, Aspergillus flavus, Aspergillus niger, Aspergillus ustus, Cindosporum herbarum, Paecilomyces variotii, Penicillium citrium …); assay: Test of dispersion coatings for resistance to mold; format: cell-based; conditions: coatings according to recipe A containing 1.0% (based on solids) of compound; even after rinsing out and wind tunnel exposure; 2-3 weeks, 29±1° C., 80-90% rel. humidity
Description: To test dispersion coatings for resistance to mold, the following procedure was adopted:
The paint to be tested was applied to both sides of a suitable base. To obtain results which are close to practice, some of the test specimens were rinsed out with running water (24 h, 20° C.) before the test for mold resistance; others were treated with a current of warm fresh air (7 days, 40° C.).
The samples prepared in this way were then placed on an agar nutrient medium, and both samples and nutrient medium were contaminated with fungal spores. After 2-3 weeks storage (29±1° C., 80-90% rel. atmospheric humidity), the samples were compared.
The coating is considered to be permanently mold-resistant if the sample remains free from fungus or at most a slight border infestation can be detected.
For the contamination, fungal spores of the following mold fungi were used, which are known as paint destroyers or are frequently encountered on coatings: […]

Row | Compound | melting point [°C] | MIC (Penicillium brevicaule) [µg/mL] | MIC (Chaetomium globosum) [µg/mL] | MIC (Aspergillus niger) [µg/mL] | Mold resistance of coating [1]
1 | CCCCn1nnnc1I [Example 1, 5-Iodo-1-butyltetrazole] | 31 to 37 | < 1 | 5 (≈ 19.8 µM) | 5 (≈ 19.8 µM) | –
2 | Ic1nnnn1-c1ccccc1 [Example 2, 5-Iodo-1-phenyltetrazole] | 123 to 129 | < 40 | < 40 | < 40 | mold resistant
